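How tested: cells in 96-well plates exposed to compound for 48 hours at five concentrations. The concentration for full growth arrest is given as TGI.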
Columns and labels:
Assay in all cases: NCI-60 cell line screen, 48 h
OVCAR-5 ovarian = tested on: OVCAR-5 ovarian
MOLT-4 leukemia = tested on: MOLT-4 leukemia
NCI-H226 lung = tested on: NCI-H226 lung
DLD-1 colon = tested on: DLD-1 colon
SN12C renal = tested on: SN12C renal
EKVX NSCLC = tested on: EKVX NSCLC
HOP-92 NSCLC = tested on: HOP-92 NSCLC
KM20L2 colon = tested on: KM20L2 colon
LOX IMVI melanoma = tested on: LOX IMVI melanoma
RXF 393 renal = tested on: RXF 393 renal
HCT-116 colon = tested on: HCT-116 colon
ACHN renal = tested on: ACHN renal
DMS 114 small cell lung = tested on: DMS 114 small cell lung
UACC-257 melanoma = tested on: UACC-257 melanoma
K-562 leukemia = tested on: K-562 leukemia
SK-MEL-5 melanoma = tested on: SK-MEL-5 melanoma
CCRF-CEM leukemia = tested on: CCRF-CEM leukemia
RPMI-8226 leukemia = tested on: RPMI-8226 leukemia
SK-MEL-2 melanoma = tested on: SK-MEL-2 melanoma
SK-OV-3 ovarian = tested on: SK-OV-3 ovarian
HL-60(TB) leukemia = tested on: HL-60(TB) leukemia
A549 NSCLC = tested on: A549 NSCLC
M19-MEL melanoma = tested on: M19-MEL melanoma
SNB-78 CNS = tested on: SNB-78 CNS
KM12 colon = tested on: KM12 colon
UACC-62 melanoma = tested on: UACC-62 melanoma
SNB-75 CNS = tested on: SNB-75 CNS
U251 CNS = tested on: U251 CNS
COLO 205 colon = tested on: COLO 205 colon
UO-31 renal = tested on: UO-31 renal
NCI-H23 lung = tested on: NCI-H23 lung
NCI-H460 lung = tested on: NCI-H460 lung
HT29 colon = tested on: HT29 colon
MALME-3M melanoma = tested on: MALME-3M melanoma
TK-10 renal = tested on: TK-10 renal
SF-539 CNS = tested on: SF-539 CNS
IGROV1 ovarian = tested on: IGROV1 ovarian
SF-295 CNS = tested on: SF-295 CNS
OVCAR-8 ovarian = tested on: OVCAR-8 ovarian
OVCAR-4 ovarian = tested on: OVCAR-4 ovarian
SF-268 CNS = tested on: SF-268 CNS
SNB-19 CNS = tested on: SNB-19 CNS
HOP-62 NSCLC = tested on: HOP-62 NSCLC
SW-620 colon = tested on: SW-620 colon
HOP-18 NSCLC = tested on: HOP-18 NSCLC
OVCAR-3 ovarian = tested on: OVCAR-3 ovarian
XF 498 CNS = tested on: XF 498 CNS
786-0 renal = tested on: 786-0 renal
DMS 273 small cell lung = tested on: DMS 273 small cell lung
SK-MEL-28 melanoma = tested on: SK-MEL-28 melanoma
A498 renal = tested on: A498 renal
NCI-H522 lung = tested on: NCI-H522 lung
CAKI-1 renal = tested on: CAKI-1 renal
LXFL 529 NSCLC = tested on: LXFL 529 NSCLC
M14 melanoma = tested on: M14 melanoma
HCT-15 colon = tested on: HCT-15 colon
HCC-2998 colon = tested on: HCC-2998 colon

O=C(OCCO)C1CC2CC1C1(C2)OCCO1 (stereo not drawn)
TGI (OVCAR-5 ovarian): > 100 µM | TGI (MOLT-4 leukemia): > 100 µM | TGI (NCI-H226 lung): > 100 µM | TGI (DLD-1 colon): > 100 µM | TGI (SN12C renal): > 100 µM | TGI (EKVX NSCLC): > 100 µM | TGI (HOP-92 NSCLC): > 100 µM | TGI (KM20L2 colon): > 100 µM | TGI (LOX IMVI melanoma): > 100 µM | TGI (RXF 393 renal): > 100 µM | TGI (HCT-116 colon): > 100 µM | TGI (ACHN renal): > 100 µM | TGI (DMS 114 small cell lung): > 100 µM | TGI (UACC-257 melanoma): > 100 µM | TGI (K-562 leukemia): > 100 µM | TGI (SK-MEL-5 melanoma): > 100 µM | TGI (CCRF-CEM leukemia): > 100 µM | TGI (RPMI-8226 leukemia): > 100 µM | TGI (SK-MEL-2 melanoma): > 100 µM | TGI (SK-OV-3 ovarian): > 100 µM | TGI (HL-60(TB) leukemia): > 100 µM | TGI (A549 NSCLC): > 100 µM | TGI (M19-MEL melanoma): > 100 µM | TGI (SNB-78 CNS): > 100 µM | TGI (KM12 colon): > 100 µM | TGI (UACC-62 melanoma): > 100 µM | TGI (SNB-75 CNS): > 100 µM | TGI (U251 CNS): > 100 µM | TGI (COLO 205 colon): > 100 µM | TGI (UO-31 renal): > 100 µM | TGI (NCI-H23 lung): > 100 µM | TGI (NCI-H460 lung): > 100 µM | TGI (HT29 colon): > 100 µM | TGI (MALME-3M melanoma): > 100 µM | TGI (TK-10 renal): > 100 µM | TGI (SF-539 CNS): > 100 µM | TGI (IGROV1 ovarian): > 100 µM | TGI (SF-295 CNS): > 100 µM | TGI (OVCAR-8 ovarian): > 100 µM | TGI (OVCAR-4 ovarian): > 100 µM | TGI (SF-268 CNS): > 100 µM | TGI (SNB-19 CNS): > 100 µM | TGI (HOP-62 NSCLC): > 100 µM | TGI (SW-620 colon): > 100 µM | TGI (HOP-18 NSCLC): > 100 µM | TGI (OVCAR-3 ovarian): > 100 µM | TGI (XF 498 CNS): > 100 µM | TGI (786-0 renal): > 100 µM | TGI (DMS 273 small cell lung): > 100 µM | TGI (SK-MEL-28 melanoma): > 100 µM | TGI (A498 renal): > 100 µM | TGI (NCI-H522 lung): > 100 µM | TGI (CAKI-1 renal): > 100 µM | TGI (LXFL 529 NSCLC): > 100 µM | TGI (M14 melanoma): > 100 µM

CCn1c(=O)nc2n(-c3ccccc3)c3ccccc3nc-2c1=O
TGI (OVCAR-5 ovarian): 66.4 µM | TGI (MOLT-4 leukemia): 40.4 µM | TGI (NCI-H226 lung): 63.8 µM | TGI (DLD-1 colon): > 100 µM | TGI (SN12C renal): 64.8 µM | TGI (EKVX NSCLC): > 100 µM | TGI (HOP-92 NSCLC): 62.4 µM | TGI (KM20L2 colon): 85.4 µM | TGI (ACHN renal): 68.7 µM | TGI (DMS 114 small cell lung): 30.3 µM | TGI (UACC-257 melanoma): 38.7 µM | TGI (K-562 leukemia): 61.2 µM | TGI (SK-MEL-5 melanoma): 22.8 µM | TGI (CCRF-CEM leukemia): 72.3 µM | TGI (RPMI-8226 leukemia): > 100 µM | TGI (SK-MEL-2 melanoma): 76.3 µM | TGI (SK-OV-3 ovarian): > 100 µM | TGI (HL-60(TB) leukemia): 38.5 µM | TGI (A549 NSCLC): > 100 µM | TGI (M19-MEL melanoma): 25.2 µM | TGI (SNB-78 CNS): > 100 µM | TGI (KM12 colon): > 100 µM | TGI (UACC-62 melanoma): 31.9 µM | TGI (SNB-75 CNS): > 100 µM | TGI (U251 CNS): 75.2 µM | TGI (COLO 205 colon): 16 µM | TGI (UO-31 renal): > 100 µM | TGI (NCI-H23 lung): > 100 µM | TGI (NCI-H460 lung): > 100 µM | TGI (MALME-3M melanoma): 31.7 µM | TGI (TK-10 renal): > 100 µM | TGI (SF-539 CNS): 38.8 µM | TGI (IGROV1 ovarian): 74.2 µM | TGI (SF-295 CNS): > 100 µM | TGI (OVCAR-8 ovarian): 67.9 µM | TGI (OVCAR-4 ovarian): 25.9 µM | TGI (SF-268 CNS): 85.1 µM | TGI (HCT-15 colon): 65.4 µM | TGI (SNB-19 CNS): 76 µM | TGI (HOP-62 NSCLC): > 100 µM | TGI (SW-620 colon): 86.5 µM | TGI (HOP-18 NSCLC): > 100 µM | TGI (OVCAR-3 ovarian): 43.1 µM | TGI (XF 498 CNS): 34.5 µM | TGI (786-0 renal): > 100 µM | TGI (DMS 273 small cell lung): 34.7 µM | TGI (HCC-2998 colon): 94 µM | TGI (SK-MEL-28 melanoma): > 100 µM | TGI (A498 renal): > 100 µM | TGI (NCI-H522 lung): > 100 µM | TGI (CAKI-1 renal): > 100 µM | TGI (LXFL 529 NSCLC): > 100 µM | TGI (M14 melanoma): 35 µM

Source: PubChem BioAssay (NCI)
